Test results reported in US4014909A, “Esters of 21-thiol steroids” (priority 1974, dated 1977).

Columns and labels:
[1] = test system: liver, kidneys, spleen, thymus, stomach; format: in vivo, rat (Sprague-Dawley); conditions: strong dose (436 mg/kg s.c. daily), male rat; study broken off on the 14th day
[2] = Action on the protein metabolism: weight increase of immature rats, 96 hours; format: in vivo, rat (Wistar
From the text: The action on the protein metabolism was examined by means of a test, the principle of which is as follows:
The administration of gluco-corticoids results in a disturbance of the protein metabolism, which is shown by an exaggerated protein catabolism resulting in shrinking of the tissues objectified by an inhibition of growth in weight in the young animal and a loss of body weight in the adult animal.
For this study, immature rats of Wistar strain were utilized, the initial weight of which was between 45 and 55 grams, which were distributed at random groups of 10.
The products under study were administered daily for 4 days. The animals were weighed daily during the 4 days of treatment and 24 hours after the last dose.
The products tested were administered either orally or by sub-cutaneous injection, in suspension in 5 % gum arabic for the oral route or in carboxy-methyl-cellulose at 5 % for the sub-cutaneous method, the animals of the reference group receiving the same volume of vehicle by the same method as the corresponding animals treated.
The average variation of the body weight during the 96 hours treatment was calculated for each group of animals.
The increase in weight of immature rats (45 to 55 grams) treated for 96 hours following the procedure (g) by JO 1016, by the oral or the sub-cutaneous routes (average weight at the end of the study, less the average weight at the beginning) are indicated in the following Table XVIII.

Row | SMILES | Mortality [1] | Increase in weight of immature rats ([2]; 1 mg/rat/day, sub-cutaneous route) [g] | Increase in weight of immature rats ([2]; 3 mg/rat/day, oral route) [g] | Increase in weight of immature rats ([2]; 10 mg/rat/day (last line of Table XVIII (so in the source)), oral route) [g] | Increase in weight of immature rats ([2]; 10 mg/rat/day, oral route) [g] | Increase in weight of immature rats ([2]; 10 mg/rat/day, sub-cutaneous route) [g] | Increase in weight of immature rats ([2]; 30 mg/rat/day, oral route) [g] | Increase in weight of immature rats ([2]; 30 mg/rat/day, sub-cutaneous route) [g]
1 | CC(=O)OCC(=O)[C@@]1(O)CC[C@H]2[C@@H]3CCC4=CC(=O)CC[C@]4(C)[C@H]3[C@@H](O)C[C@@]21C [Hydrocortisone (acetate), Hydrocortisone acetate, reference compound] | high mortality observed with the strong dose |  |  |  |  |  |  | 
2 | CC(C)(C)C(=O)SCC(=O)[C@@]1(O)CC[C@H]2[C@@H]3CCC4=CC(=O)CC[C@]4(C)[C@H]3[C@@H](O)C[C@@]21C [JO 1016, Dihydroxy-11β, 17α thio-21 dioxo-3,20 pregnene-4-21 pivalate] |  | 17 | 14 | 8 | 11 | 16 | 13 | 16
